The values below come from PubChem BioAssay (NCI).

Assay in all cases: DTP human tumour cell line panel, 48 h
Test [1] relates to K-562 leukemia.
For test [2], the system named is SK-MEL-28 melanoma.
The subject of test [3] is UACC-257 melanoma.
The test system of test [4] is A549 NSCLC.
In test [5] the test system is CCRF-CEM leukemia.
In test [6] the test system is ACHN renal.
Test [7] has as its system OVCAR-3 ovarian.

“And” between values parts separate entries of the source, which are not always exact repeats. Identical values can stand only once.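 The compound was tested at five concentrations on cells cultured in 96-well plates, with a 48-hour exposure period. Abbreviation: GI50, concentration required for 50% inhibition of growth. At the TGI there is no net growth.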

Take `CC(=O)Nc1ccc(C2=N/C(=C\c3ccc(Cl)cc3)C(=O)O2)cc1`: the TGI in test [1] is 51.8 µM; in test [2], over 100 µM; in test [3] it was over 100 µM; in test [4] it was over 100 µM; in test [5] it was 71.7 µM; in test [6] it was 94 µM. The same molecule displayed a TGI in test [7] of 86.7 µM.

For `CC1=C(C(=O)Nc2ccc(C)cc2)C(c2cccc([N+](=O)[O-])c2)C(C(=O)Nc2ccc(C)cc2)=C(C)N1`, the TGI was 63.5 µM in test [1]; over 100 µM in test [2]; 56.7 µM in test [3]; over 100 µM in test [4]; 50.7 µM in test [5]; 80.8 µM in test [6]. In test [7], this molecule registered a total growth inhibition concentration (TGI) of 95.5 µM.

On to `N#Cc1cccc(C2C(=O)c3ccc(C(=O)c4ccc5c(c4)C(=O)N(c4ccc(Oc6ccc(N7C(=O)c8ccc(C(=O)c9ccc%10c(c9)C(=O)N(c9cccc(C#N)c9)C%10=O)cc8C7=O)cc6)cc4)C5=O)cc3C2=O)c1` (stereo not given), for which the TGI in test [1], in test [2], in test [3], in test [4], in test [5] and in test [6] was over 100 µM throughout. Besides, in test [7], the TGI was over 100 µM.

For `Cc1ccccc1-n1c(CCl)nc2ccc(Br)cc2c1=O`, the TGI in test [2] came out at 32.5 µM; in test [3], 32.2 µM; in test [4], 44.9 µM; in test [5], 4.78 µM; in test [6], 83.8 µM; in test [7] it was 27.5 µM.

`Clc1ccccc1C1SCc2nc3ccccc3n21` (stereo not given): the TGI in test [1] was over 100 µM; in test [2], 76.4 µM; in test [4], over 100 µM; in test [5], over 100 µM; in test [6] it was over 100 µM; in test [7], 29.5 µM.

As for `Fc1ccc(N=C2C=CC(=Nc3ccc(F)cc3)c3ccccc32)cc1`, the TGI in test [1], in test [2], in test [3], in test [4], in test [5] and in test [6] was over 100 µM throughout. This molecule registered a TGI in test [7] of over 100 µM.

Consider `COC(=O)C1=CC(=O)[C@@H]2CCCC[C@H]12`, for which the concentration for total growth inhibition (TGI) in test [1], in test [2], in test [3], in test [4], in test [5] and in test [6] was over 100 µM in each case. For the same molecule, the concentration for total growth inhibition (TGI) in test [7] was over 100 µM.

As for `O=C(Cc1nc2ccccc2o1)C(=O)Nc1ccc(Cl)cc1Cl`, the TGI in test [1], in test [2], in test [3], in test [4], in test [6] and in test [7] was over 100 µM each time.

As to `Cc1cc(Cl)cc2c1NC(=O)C2(O)C(C(=O)c1ccccc1)c1ccccc1` (stereo not given), the TGI in test [1] is over 100 µM; in test [2], > 100 µM and 51 µM; in test [3], > 100 µM and 52.1 µM; in test [4], > 100 µM and 51.5 µM; in test [5] it was 81.5 µM; in test [6], > 100 µM and 40.6 µM. The TGI in test [7] is > 100 µM and 54.1 µM. The GI50 in test [2] was 96.6 µM and 24.5 µM; in test [3], 57 µM and 19.9 µM; in test [4], 97.1 µM and 22.6 µM; in test [6], 43 µM and 18.8 µM; in test [7], 53 µM and 22.4 µM.

For `CCc1ccccc1NC(=O)C(=O)C1C(=O)N(c2ccccc2)N=C1N` (stereo not given), the concentration for total growth inhibition (TGI) in test [1], in test [2], in test [3], in test [4], in test [6] and in test [7] was over 100 µM throughout.

As to `[CH3][Hg]/[N]=C(/N)NC#N`, the GI50 was 1.69 µM in test [1]; 11.9 µM in test [2]; 5.1 µM in test [3]; 17.3 µM in test [4]; 3.65 µM in test [5]; 13.5 µM in test [6]. The GI50 in test [7] is 2.74 µM. Besides, the TGI in test [1] is over 100 µM; in test [2], 30.1 µM; in test [3], 17.4 µM; in test [4], 38.4 µM; in test [5], over 100 µM; in test [6], 26.4 µM. This molecule also showed a total growth inhibition concentration (TGI) in test [7] of 8.6 µM.

With `Cc1ccc(NC(=O)CC2SC(=Nc3ccc(Cl)cc3)NC2=O)cc1C` (stereo not given), the TGI is over 58.5 µM in test [1]; 33.9 µM in test [2]; 29.4 µM in test [3]; 34.3 µM in test [4]; 11 µM in test [5]; 29.6 µM in test [6]. For the same molecule, the TGI in test [7] worked out at 33.2 µM.

Turning to `CN1C2(c3ccccc3)C(C(=O)c3ccccc3)=C(C(=O)c3ccccc3)C1(c1ccccc1)c1c(-c3ccccc3)sc(-c3ccccc3)c12`, the TGI in test [1], in test [2], in test [3], in test [4], in test [5] and in test [6] was over 100 µM each time. The molecule further returned a TGI in test [7] of over 100 µM.

Consider `Cc1cc(C)c(/C=N/NS(=O)(=O)c2ccccc2)c(C)c1`, for which the TGI in test [1], in test [2], in test [3], in test [4], in test [5] and in test [6] was over 100 µM in each case. Further, the TGI in test [7] is over 100 µM.

As for `CC1=CC[C@@H](C(C)(C)O)C[C@@H]1O`, the TGI in test [1], in test [2], in test [3], in test [4], in test [5] and in test [6] was over 5000 µM throughout. The molecule further showed a total growth inhibition concentration (TGI) in test [7] of over 5000 µM.

Consider `CC(=O)O[C@@H]1CC[C@@]2(C)C(=O)C34C[C@@]5(C)C([C@@H](C)CCCC(C)C)CCC5(C)[C@](O)(O3)C(=O)[C@H]4C2C1(C)C` (stereo not given in full), for which the TGI in test [1] came to 29.9 µM; in test [2], 35.6 µM; in test [3], 32.3 µM; in test [4], 29.1 µM; in test [5], 19.8 µM; in test [6] it was 27 µM. Also, in test [7], the TGI was 25.1 µM.

`N#CCCN(c1ccc(C=O)cc1)S(=O)(=O)c1ccccc1`: the TGI in test [1], in test [2], in test [3], in test [4], in test [6] and in test [7] was over 100 µM each time.

Turning to `COc1ccc2nc3ccccc3c(NCCN(CCCl)CCCl)c2c1`, the TGI came to 4.92 µM in test [1]; 5.28 µM in test [2]; 3.99 µM in test [3]; 10.7 µM in test [4]; 2.39 µM in test [5]; 2.53 µM in test [6]. This molecule showed a TGI in test [7] of 1.08 µM.

Turning to `O=C(O)CCC1c2[nH]c3ccccc3c2CCN1Cc1ccccc1` (stereo not given), the TGI in test [1], in test [2], in test [3], in test [4], in test [5] and in test [6] was over 100 µM each time. For the same molecule, the TGI in test [7] was over 100 µM.

As to `CCOC(=O)C(=O)C(C#N)c1ccc(Cl)cc1` (stereo not given), the TGI in test [1], in test [2], in test [3], in test [4], in test [6] and in test [7] was over 100 µM throughout.

For the molecule `COc1cc(CC(=O)O)c([N+](=O)[O-])cc1OC`, the TGI in test [1], in test [2], in test [3], in test [4], in test [5] and in test [6] was over 100 µM each time. Also, the TGI in test [7] was over 100 µM.

`O=C(CC(=O)c1cccc([N+](=O)[O-])c1)C(=O)Nc1ccccc1`: the TGI in test [1], in test [2], in test [3], in test [4], in test [5] and in test [6] was over 100 µM in each case. The molecule also showed a TGI in test [7] of over 100 µM.

On to `COc1ccc([C@@H]2OC(=O)C3C2C(=O)O[C@H]3c2ccc(OC)cc2)cc1` (stereo not given in full), for which the TGI in test [1], in test [2], in test [3], in test [4], in test [5] and in test [6] was over 100 µM in each case. The molecule also came in with a total growth inhibition concentration (TGI) in test [7] of over 100 µM.

In the case of `COC(=O)C(C(=O)C(=O)Nc1ccccc1C)c1nc2ccc([N+](=O)[O-])cc2[nH]c1=O` (stereo not given), the TGI in test [1], in test [2], in test [3], in test [4], in test [5] and in test [6] was over 100 µM throughout. In test [7], the TGI is over 100 µM.

As for `O=C(CC1(O)C(=O)Nc2ccccc21)c1ccccc1O` (stereo not given), the TGI in test [1], in test [2], in test [3], in test [4], in test [6] and in test [7] was over 100 µM throughout.

What is called TGI is the concentration at which net growth stops. As usually defined, the GI50 is the concentration giving 50% growth inhibition.
